In US12239650B2, “Compounds for treating and preventing net associated complications” (The Australian National University, priority 2019, dated 2025):

Key:
[1] = Rat ischemia reperfusion tissue (skin) flap model; format: in vivo; details: rat skin flap IRI, 50 mg kg^−1 i.p., 72 h, FIG. 7d
Excerpt: Rat ischemia reperfusion tissue flap model. The procedure employed is largely based on a previously described method (Bone, R. C. et al. Definitions for sepsis and organ failure and guidelines for the use of innovative therapies in sepsis. The ACCP/SCCM Consensus Conference Committee. American College of Chest Physicians/Society of Critical Care Medicine. Chest 101, 1644-1655 (1992)). Briefly, male Wistar rats were anaesthetized, locally depilated and a 3 cm by 6 cm fasciocutaneous flap was excised leaving the vascular pedicle intact. […] The clamp was removed 10 h post-application permitting returned blood flow to the flap. Test compounds (50 mg kg^−1) or saline were administered i.p. 5 min prior to clamp application and 5 min following its removal. The rats were monitored for a total experimental period of 72 h during which rats received additional compound or saline i.p. at 24 and 48 h post-op. The ‘Control No Clamp’ rats had the tissue flap excised and rubber placed underneath prior to re-suturing, however, the vessel was not clamped and they received saline at the same time points as the other rats. At the end of the experimental period the viability of the flaps was determined by the percentage of black necrotic or reddened areas versus pink viable areas. […]

[2] = system: histone-mediated RBC aggregation; test: Histone-mediated erythrocyte aggregation (flow cytometry, scanning EM); format: cell-based, human
Method: (§1) Human erythrocytes (RBC) were incubated for 1 h at 37° C. alone (‘Saline’ control) or in the presence of histones (400 μg ml^−1) with or without mCBS (200 μg ml^−1). a, Percentage of RBC aggregation measured by flow cytometry based on forward (FSC) and side (SSC) scatter parameters and an appropriate gating strategy to discriminate aggregated from normal (non-aggregated) RBC. b, Scanning electron micrographs depicting level of RBC aggregation at low and high magnification following the three treatments depicted in (a). c, Concentration dependent inhibition of histone-mediated RBC aggregation by mCBS and MTS, in this case RBC aggregation being calculated by flow cytometry as fold increase in RBC auto-fluorescence relative to RBC in the absence of histones. The fold increase values also provide an estimate of the number of RBC in each aggregate. d, Retention of RBC in an artificial spleen that measures RBC deformability. RBC were incubated with increasing concentrations of histones for 1 h and, at the highest concentration used (400 μg ml^−1), also incubated with either mCBS or MTS (100 and 200 μg ml^−1), prior to passage through the artificial spleen. Data are mean±s.e.m. (n=3 biological replicates). ***P<0.001, ****P<0.0001 (one way ANOVA with Dunnett's multiple comparisons test).
In vitro erythrocyte microscopy, aggregation, fragility and deformability assays. […] J Biol Chem 289, 19531-19537 (2014)). Similarly, erythrocyte fragility induced by histones, in the presence or absence of inhibitors, was quantified using a sheer stress assay that we developed recently (Kordbacheh, F., O'Meara, C. H., Coupland, L. A., Lelliott, P. M. & Parish, C. R. Extracellular histones induce erythrocyte fragility and anemia. Blood 130, 2884-2888 (2017)). Finally, the reduced deformability of erythrocytes in the presence of histones and the effect of inhibitors on this process was assessed by measuring the passage of erythrocytes through an artificial human spleen (Kordbacheh, F., O'Meara, C. H., Coupland, L. A., Lelliott, P. M. & Parish, C. R. Extracellular histones induce erythrocyte fragility and anemia. Blood 130, 2884-2888 (2017); and Deplaine, G. et al. The sensing of poorly deformable red blood cells by the human spleen can be mimicked in vitro. Blood 117, e88-95 (2011)).

[3] = system: histone-induced erythrocyte rigidity; test: Erythrocyte deformability, passage through artificial spleen; format: cell-based, human; details: histones 400 μg ml^−1, compounds 100 and 200 μg ml^−1, FIG. 3d
Method: as §1, with “RBC were incubated with increasing concentrations of histones for 1 h and, at the highest concentration used (400 μg ml^−1), also incubated with either mCBS or MTS (100 and 200 μg ml^−1), prior to passage through the artificial spleen. Data are mean±s.e.m. (n=3 biological replicates). ***P<0.001, ****P<0.0001 (one way ANOVA with Dunnett's multiple comparisons test).” left out
In vitro erythrocyte microscopy, aggregation, fragility and deformability assays. […] Similarly, erythrocyte fragility induced by histones, in the presence or absence of inhibitors, was quantified using a sheer stress assay that we developed recently (Kordbacheh, F., O'Meara, C. H., Coupland, L. A., Lelliott, P. M. & Parish, C. R. Extracellular histones induce erythrocyte fragility and anemia. Blood 130, 2884-2888 (2017)). […]

[4] = system: histone-mediated cytotoxicity for HMEC-1; test: Histone-mediated cytotoxicity assay (PI/Calcein-AM flow cytometry); format: cell-based
Method: Histone-mediated cytotoxicity assays. To determine the cytotoxicity of calf thymus histones (Sigma-Aldrich), various concentrations of histones (100-800 μg ml^−1) were added to suspensions of HMEC-1 or HUVEC (1×10^6 ml^−1) in 96 well plates and incubated for 1 h at 37° C. Cells were then incubated for 5 min at 37° C. with propidium iodide (PI; 2.5 μg ml^−1) (ThermoFisher Scientific), to detect dead cells, and Calcein-AM (0.04 μM) (ThermoFisher Scientific), to detect viable cells, placed on ice and the percentage of dead and viable cells determined by flow cytometry using gating strategies. In inhibition assays, HMEC-1 were incubated with histones (400 μg ml^−1) for 1 h at 37° C. in the presence of different concentrations of compounds (12.5-400 μg ml^−1) prior to the addition of PI and Calcein-AM. HMEC-1 cytotoxicity at each compound concentration was then determined based on the formula:
[formula] and the IC50 value for each polyanion then determined based on the line of best fit (nonlinear regression analysis) using Prism Software (Graphpad Software). In all assays MTS (IC50 30 μg ml^−1) was included as a standard to compensate for experimental variation, with data being adjusted in each assay to MTS having an IC50 of 30 μg ml^−1.

[5] = system: anti-proliferative effect of histones on HMEC-1; test: HMEC-1 proliferation (3H-thymidine) after histone exposure; format: cell-based, human; details: compounds 100 μg ml^−1, histones 400 μg ml^−1, FIG. 8b

O=S(=O)(O)OC[C@H]1O[C@H](O[C@H]2[C@H](OS(=O)(=O)O)[C@@H](OS(=O)(=O)O)C(OS(=O)(=O)O)O[C@@H]2COS(=O)(=O)O)[C@H](OS(=O)(=O)O)[C@@H](OS(=O)(=O)O)[C@@H]1O[C@H]1O[C@H](COS(=O)(=O)O)[C@@H](OS(=O)(=O)O)[C@H](OS(=O)(=O)O)[C@H]1OS(=O)(=O)O (stereo partly shown) [MTS, maltotriose per-O-sulfate]
Viable area of the skin flap [1]: highly variable | Effectiveness of MTS relative to mCBS in preventing RBC aggregation ([2]; FIG. 3c): ~2 fold | Prevention of histone-mediated RBC aggregation (auto-fluorescence) ([2]; histones 400 μg ml^−1, FIG. 3c): prevented aggregation in a concentration dependent manner | Ability of erythrocytes to passage through an artificial spleen [3]: totally restored | Inhibition of histone-mediated cytotoxicity for HMEC-1 (endothelial cells) ([4]; compared with heparin, FIG. 2a): as effective as heparin | IC50, inhibition of histone-mediated HMEC-1 cytotoxicity ([4]; histones 400 μg ml^−1, 1 h 37° C., MTS used as standard in all assays): 30 µg/mL | Neutralization of anti-proliferative effect of histones on HMEC-1 monolayers [5]: completely neutralized
